# Assay results taken from patent publication US11241440B2, “Dihydrooxadiazine compounds for treating infections and cancer” (VALORALIA I MÁS D, SL, priority 2016, dated 2022).
# Read-outs that look alike come from different tables or passages of the source.
# Columns and labels:
# B. cereus = assay: Kirby-Bauer disk diffusion susceptibility test; type: cell-based, Bacillus cereus; conditions: B. cereus
# [1] = system: FTKGF (deficient in thymidine kinase protein); conditions: compound 2 μM
# [2] = system: all species tested (pathogenic bacteria); type: cell-based
# MCF7 = assay: MTT assay; type: cell-based; conditions: Homo sapiens, 48 hours
# HOS = assay: MTT assay; type: cell-based; conditions: Homo sapiens, 48 hours
# M. abscessus = assay: Kirby-Bauer disk diffusion susceptibility test; type: cell-based, Mycobacterium abscessus; conditions: M. abscessus; 100 μg/disc; zone of inhibition
# HIV virus (NL4.3-Ren) = assay: microbe, parasite or virus in culture; type: cell-based; conditions: for Viral replication (%): relative to DMSO control, cells not given
# Aspergillus terreus = assay: EUCAST broth dilution antifungal susceptibility test (MIC); type: cell-based; conditions: 100% inhibition, 24 hours at 35° C., dilution range 64 to 0.12 mg/l
# Experimental: (§1) Filamentous fungi and yeasts strains, from clinical origin, were supplied by Microbiology Service from The Princess Hospital, Madrid. They are detailed in Table III. Filamentous fungi and yeast cells suspensions in distilled water was prepared from a culture of 24-48 h, depending on species, in Sabouraud agar. Each suspension was adjusted to a fixed size inoculum of 1-5×10^8 CFU/ml with a spectrophotometer (Ferraro, M J National Committee for Clinical Laboratory Standards. 2000). Antifungal susceptibility tests were developed following the standardized methodology detailed by the European Committee on Antimicrobial Susceptibility Testing (EUCAST) documents 7.2 (method for the determination of broth dilution minimum inhibitory concentrations of antifungal agents for yeasts EDef 7.2) and 9.2 (Method for the determination of broth dilution minimum inhibitory concentrations of antifungal agents for conidia forming foulds). The compound was dissolved in DMSO and diluted with RPMI plates with 2% glucose to pH 7 with MOPS buffer. […] Plates were inoculated with a yeast suspension or filamentous fungal spores (1-5×10^5 cls/ml). The results were evaluated after 24 hours incubation at 35° C. and absorbance reading at 530 nm.
# Aspergillus fumigatus = assay: as above; type: cell-based; conditions: 100% inhibition, 24 hours at 35° C., dilution range 64 to 0.12 mg/l
# Experimental: as §1
# Candida parapsilosis = assay: as above; type: cell-based; conditions: 50% inhibition, 24 hours at 35° C., dilution range 64 to 0.12 mg/l
# Experimental: as §1
# Aspergillus flavus = assay: as above; type: cell-based; conditions: 100% inhibition, 24 hours at 35° C., dilution range 64 to 0.12 mg/l
# Experimental: as §1
# Scedosporium prolificans = assay: as above; type: cell-based; conditions: 100% inhibition, 24 hours at 35° C., dilution range 64 to 0.12 mg/l
# Experimental: as §1
# CAL33 = assay: MTT assay; type: cell-based
# M. fortuitum = assay: Kirby-Bauer disk diffusion susceptibility test; type: cell-based; conditions: M. fortuitum; 100 μg/disc; zone of inhibition
# HSV-2, strain G = conditions: compound 2 μM
# SK-UT-1 = assay: MTT assay; type: cell-based; conditions: Homo sapiens, 48 hours
# [3] = system: equine herpes virus type 1 (EHV-1); assay: Viral titer reduction; type: cell-based; conditions: 2 μM
# [4] = Cellular viability, CellTiter Glo; type: cell-based; conditions: human, read-out: CC50 nM (concentration of drug required to kill 50% of cells)
# Experimental: (§2) All assays for assessing anti-HIV activity were taken in parallel to determine cellular viability of the culture in the presence or absence of different concentrations of the isolated molecule. It was followed exactly the same methodology as in the anti-HIV assay except with the addition of complete DMEM medium instead of supernatant viral, in the same proportion, and the detection of the viability was performed with the viability detection kit CellTiter Glo (Promega), following manufacturer instructions. Viability is directly proportional to the luciferase activity obtained. All data are expressed as percentage relative to a control with DMSO at the same concentration. Antiviral activity and toxicity curves were performed to the compound at different concentrations.
# MT-2 cells = assay: Cellular viability, CellTiter Glo; type: cell-based
# Experimental: as §2
# PBMCs = assay: Cellular viability, CellTiter Glo; type: cell-based; conditions: PBMCs cells
# Experimental: as §2
# N. cyriacigeorgica = assay: Kirby-Bauer disk diffusion susceptibility test; type: cell-based; conditions: N. cyriacigeorgica; 100 μg/disc; zone of inhibition
# PRV-NIA3 = type: cell-based, porcine pseudorabies virus (PRV); conditions: compound 2 μM
# [5] = system: HIV virus non-recombinant wild type (NL4.3); assay: Inhibition of non-recombinant wild type HIV; type: cell-based; conditions: Human immunodeficiency virus 1
# PC3 = assay: MTT assay; type: cell-based; conditions: Homo sapiens, PC-3, 48 hours
# S. aureus = assay: Kirby-Bauer disk diffusion susceptibility test; type: cell-based, Staphylococcus aureus; conditions: S. aureus; 100 μg/disc; zone of inhibition
# A. baumannii = assay: Kirby-Bauer disk diffusion susceptibility test; type: cell-based, Acinetobacter baumannii; conditions: A. baumannii; 100 μg/disc; zone of inhibition
# [6] = Cellular viability, CellTiter Glo (Table V, cells not stated); type: cell-based; conditions: human, relative to DMSO control
# Experimental: as §2
# M. chelonae = assay: Kirby-Bauer disk diffusion susceptibility test; type: cell-based; conditions: M. chelonae; 100 μg/disc; zone of inhibition
smiles,measurement,setting,value
"CCCCCC1=NN(C(=O)CCO)OC(CCCCC)C1 (stereo not shown) [Compound, 1-(4,6-dipentyl-5,6-dihydro-2H-1,2,3-oxadiazin-2-yl)-3-hydroxypropan-1-one]",kind of antibiotic activity,B. cereus,bacteriostatic
same,"Activity (mm), 100 μg/disc","B. cereus; 100 μg/disc, zone of inhibition",37-40 mm
same,reduction of the titer,[1],2.5 logarithms
same,kind of antibiotic activity,[2],bactericidal
same,IC50,MCF7,127 nM
same,IC50,HOS,170 nM
same,"Activity (mm), 100 μg/disc",M. abscessus,56 mm
same,Viral replication (%),HIV virus (NL4.3-Ren); 0.19 μM,45%
same,Viral replication (%),HIV virus (NL4.3-Ren); 0.39 μM,14%
same,Viral replication (%),HIV virus (NL4.3-Ren); 0.78 μM,3%
same,Viral replication (%),HIV virus (NL4.3-Ren); 1.56 μM,1%
same,Viral replication (%),HIV virus (NL4.3-Ren); 3.12 μM,0%
same,Viral replication (%),HIV virus (NL4.3-Ren); 6.25 μM,0%
same,Viral replication (%),HIV virus (NL4.3-Ren); 12.5 μM,0%
same,Viral replication (%),HIV virus (NL4.3-Ren); 25 μM,0%
same,Viral replication (%),HIV virus (NL4.3-Ren); 50 μM,0%
same,Viral replication (%),HIV virus (NL4.3-Ren); 100 μM,0%
same,IC50,"HIV virus (NL4.3-Ren); Human immunodeficiency virus 1, MT2, read-out: IC50 nM",243 nM
same,IC50,"HIV virus (NL4.3-Ren); Human immunodeficiency virus 1, PBMC, read-out: IC50 nM",362 nM
same,MIC (minimum inhibitory concentration),Aspergillus terreus,0.25
same,MIC (minimum inhibitory concentration),Aspergillus fumigatus,0.5
same,MIC (minimum inhibitory concentration),Candida parapsilosis,0.5
same,MIC (minimum inhibitory concentration),Aspergillus flavus,1
same,MIC (minimum inhibitory concentration),Scedosporium prolificans,0.5
same,concentration at which inhibition is obtained,CAL33,10 nM
same,optimal concentration of inhibition,CAL33,≥ 50 nM
same,IC50,"CAL33; Homo sapiens, CAL-33, 48 hours",42.8 nM
same,"Activity (mm), 100 μg/disc",M. fortuitum,44 mm
same,reduction of the titer,"HSV-2, strain G",3 logarithms
same,IC50,SK-UT-1,199 nM
same,reduction of the titer,[3],1 logarithm
same,CC50,[4]; MT-2 cells,2500 to 5000 nM
same,CC50,[4]; PBMCs,2500 to 5000 nM
same,toxicity,MT-2 cells,only in the highest concentrations tested (5 and 10 μM)
same,toxicity,PBMCs,only in the highest concentrations tested (5 and 10 μM)
same,"Activity (mm), 100 μg/disc",N. cyriacigeorgica,35-38 mm
same,reduction of the titer,PRV-NIA3,0.5 logarithms
same,IC50,[5],333 nM
same,IC50,PC3,217 nM
same,"Activity (mm), 100 μg/disc",S. aureus,20-22 mm
same,"Activity (mm), 100 μg/disc",A. baumannii,10-12 mm
same,viability at 0.19 µM,[6]; 0.19 μM,114%
same,viability at 0.39 µM,[6]; 0.39 μM,113%
same,viability at 0.78 µM,[6]; 0.78 μM,109%
same,viability at 1.56 µM,[6]; 1.56 μM,96%
same,viability at 3.12 µM,[6]; 3.12 μM,78%
same,viability at 6.25 µM,[6]; 6.25 μM,31%
same,viability at 12.5 µM,[6]; 12.5 μM,7%
same,viability at 25 µM,[6]; 25 μM,4%
same,viability at 50 µM,[6]; 50 μM,2%
same,viability at 100 µM,[6]; 100 μM,0%
same,"Activity (mm), 100 μg/disc",M. chelonae,63 mm
